Values of other authors in US10421710B2, “Substituted phenethylamines with serotoninergic and/or norepinephrinergic activity” (Auspex Pharmaceuticals, Inc., priority 2007, dated 2019).
Several values for one entry are separate records, joined by “and”; a condition that tells them apart may be missing. Equal entries are not always repeated.

Conditions: in humans (b8); species not repeated

Row | Structure (SMILES) | half-life (T1/2)
1 | COc1ccc(C(CN(C)C)C2(O)CCCCC2)cc1 (racemic) [venlafaxine, 1-[2-dimethylamino-1-(4-methoxy-phenyl)-ethyl]-cyclohexanol] | ~5 h and 3 to 7 h
2 | CN(C)CC(c1ccc(O)cc1)C1(O)CCCCC1 (centres unmarked) [ODV, 0-desmethylvenlafaxine] | ~11 h and 11 h
